In ChEMBL document CHEMBL1909294, “Translating clinical findings into knowledge in drug safety evaluation--drug induced liver injury prediction system (DILIps)” (PLoS Comput Biol, 2011):

Tests used:
Hepatotoxicity [1] = system: Hepatotoxicity;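 on HepSE bilirubinemia: bilirubinemia hepatic side effect score drawn from the DILIps training data, a prediction system for drug-induced liver injury; call rule not given here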;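 on HepSE cholecystitis: Cholecystitis-related hepatic side effect score drawn from the DILIps (drug-induced liver injury prediction) training data set; call rule not given here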;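 on HepSE cholelithiasis: hepatic side effect score for cholelithiasis, drawn from the DILIps training data for predicting drug-induced liver injury; call rule not given here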;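 on HepSE cirrhosis: cirrhosis hepatic side effect score taken from the DILIps (drug-induced liver injury prediction) training set; call rule not given here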;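 on HepSE elevated liver function tests: hepatic side effect score for raised liver function tests, as recorded in the DILIps training set used for predicting drug-induced liver injury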; on HepSE hepatic failure: call rule not given here;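 on HepSE hepatomegaly: hepatic side effect score for hepatomegaly, taken from the training set of the DILIps drug-induced liver injury prediction system; call rule not given here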
Hepatotoxicity [2] = system: Hepatotoxicity; remark: listed apart in the source;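 on HepSE bilirubinemia: bilirubinemia hepatic side effect score drawn from the DILIps training data, a prediction system for drug-induced liver injury; call rule not given here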;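 on HepSE cholecystitis: Cholecystitis-related hepatic side effect score drawn from the DILIps (drug-induced liver injury prediction) training data set; call rule not given here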;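 on HepSE cholelithiasis: hepatic side effect score for cholelithiasis, drawn from the DILIps training data for predicting drug-induced liver injury; call rule not given here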;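 on HepSE cirrhosis: cirrhosis hepatic side effect score taken from the DILIps (drug-induced liver injury prediction) training set; call rule not given here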;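 on HepSE elevated liver function tests: hepatic side effect score for raised liver function tests, as recorded in the DILIps training set used for predicting drug-induced liver injury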; on HepSE hepatic failure: call rule not given here;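 on HepSE hepatomegaly: hepatic side effect score for hepatomegaly, taken from the training set of the DILIps drug-induced liver injury prediction system; call rule not given here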
Hepatotoxicity [3] = system: Hepatotoxicity; remark: listed apart in the source;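 on HepSE bilirubinemia: bilirubinemia hepatic side effect score drawn from the DILIps training data, a prediction system for drug-induced liver injury; call rule not given here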;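 on HepSE cholecystitis: Cholecystitis-related hepatic side effect score drawn from the DILIps (drug-induced liver injury prediction) training data set; call rule not given here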;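 on HepSE cholelithiasis: hepatic side effect score for cholelithiasis, drawn from the DILIps training data for predicting drug-induced liver injury; call rule not given here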;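 on HepSE cirrhosis: cirrhosis hepatic side effect score taken from the DILIps (drug-induced liver injury prediction) training set; call rule not given here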;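 on HepSE elevated liver function tests: hepatic side effect score for raised liver function tests, as recorded in the DILIps training set used for predicting drug-induced liver injury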; on HepSE hepatic failure: call rule not given here
Hepatotoxicity [4] = system: Hepatotoxicity; remark: listed apart in the source;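 on HepSE bilirubinemia: bilirubinemia hepatic side effect score drawn from the DILIps training data, a prediction system for drug-induced liver injury; call rule not given here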;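 on HepSE cholecystitis: Cholecystitis-related hepatic side effect score drawn from the DILIps (drug-induced liver injury prediction) training data set; call rule not given here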;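 on HepSE cholelithiasis: hepatic side effect score for cholelithiasis, drawn from the DILIps training data for predicting drug-induced liver injury; call rule not given here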;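 on HepSE cirrhosis: cirrhosis hepatic side effect score taken from the DILIps (drug-induced liver injury prediction) training set; call rule not given here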;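 on HepSE elevated liver function tests: hepatic side effect score for raised liver function tests, as recorded in the DILIps training set used for predicting drug-induced liver injury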; on HepSE hepatic failure: call rule not given here
Hepatotoxicity [5] = system: Hepatotoxicity; remark: listed apart in the source; on HepSE hepatic failure: call rule not given here
Hepatotoxicity [6] = system: Hepatotoxicity; remark: listed apart in the source; on HepSE hepatic failure: call rule not given here
Hepatotoxicity [7] = system: Hepatotoxicity; remark: listed apart in the source
Hepatotoxicity [8] = system: Hepatotoxicity; remark: listed apart in the source
Hepatotoxicity [9] = system: Hepatotoxicity; remark: listed apart in the source
Hepatotoxicity [10] = system: Hepatotoxicity; remark: listed apart in the source
Hepatotoxicity [11] = system: Hepatotoxicity; remark: listed apart in the source
Hepatotoxicity [12] = system: Hepatotoxicity; remark: listed apart in the source
Hepatotoxicity [13] = system: Hepatotoxicity; remark: listed apart in the source
Hepatotoxicity [14] = system: Hepatotoxicity; remark: listed apart in the source

CN(CCOc1ccc(CC2SC(=O)NC2=O)cc1)c1ccccn1 (configuration not stated) [ROSIGLITAZONE]
3: HepSE_Combined Scores (Hepatotoxicity [14])
0: HepSE_cholecystitis (Hepatotoxicity [2]) | HepSE_cholelithiasis (Hepatotoxicity [3]) | HepSE_cirrhosis (Hepatotoxicity [4]) | HepSE_elevated liver function tests (Hepatotoxicity [5]) | HepSE_hepatic necrosis (Hepatotoxicity [7]) | HepSE_hepatomegaly (Hepatotoxicity [9]) | HepSE_jaundice (Hepatotoxicity [10]) | HepSE_liver disease (Hepatotoxicity [11]) | HepSE_liver fatty (Hepatotoxicity [12]) | HepSE_liver function tests abnormal (Hepatotoxicity [13])
1: HepSE_bilirubinemia (Hepatotoxicity [1]) | HepSE_hepatic failure (Hepatotoxicity [6]) | HepSE_hepatitis (Hepatotoxicity [8])

CC(O)(CS(=O)(=O)c1ccc(F)cc1)C(=O)Nc1ccc(C#N)c(C(F)(F)F)c1 (configuration not stated) [BICALUTAMIDE]
0: HepSE_bilirubinemia (Hepatotoxicity [1]) | HepSE_cholecystitis (Hepatotoxicity [2]) | HepSE_cholelithiasis (Hepatotoxicity [3]) | HepSE_cirrhosis (Hepatotoxicity [4]) | HepSE_elevated liver function tests (Hepatotoxicity [5]) | HepSE_hepatic necrosis (Hepatotoxicity [7]) | HepSE_hepatitis (Hepatotoxicity [8]) | HepSE_hepatomegaly (Hepatotoxicity [9]) | HepSE_liver disease (Hepatotoxicity [11]) | HepSE_liver fatty (Hepatotoxicity [12])
1: HepSE_hepatic failure (Hepatotoxicity [6]) | HepSE_jaundice (Hepatotoxicity [10]) | HepSE_liver function tests abnormal (Hepatotoxicity [13])
3: HepSE_Combined Scores (Hepatotoxicity [14])

N[C@@H](C(=O)N[C@@H]1C(=O)N2C(C(=O)O)=C(Cl)CS[C@H]12)c1ccccc1 [CEFACLOR ANHYDROUS]
1: HepSE_hepatitis (Hepatotoxicity [8]) | HepSE_jaundice (Hepatotoxicity [10])
2: HepSE_Combined Scores (Hepatotoxicity [14])
0: HepSE_bilirubinemia (Hepatotoxicity [1]) | HepSE_cholecystitis (Hepatotoxicity [2]) | HepSE_cholelithiasis (Hepatotoxicity [3]) | HepSE_cirrhosis (Hepatotoxicity [4]) | HepSE_elevated liver function tests (Hepatotoxicity [5]) | HepSE_hepatic failure (Hepatotoxicity [6]) | HepSE_hepatic necrosis (Hepatotoxicity [7]) | HepSE_hepatomegaly (Hepatotoxicity [9]) | HepSE_liver disease (Hepatotoxicity [11]) | HepSE_liver fatty (Hepatotoxicity [12]) | HepSE_liver function tests abnormal (Hepatotoxicity [13])

CCCC(C)(COC(N)=O)COC(N)=O [MEPROBAMATE]
0: HepSE_bilirubinemia (Hepatotoxicity [1]) | HepSE_cholecystitis (Hepatotoxicity [2]) | HepSE_cholelithiasis (Hepatotoxicity [3]) | HepSE_cirrhosis (Hepatotoxicity [4]) | HepSE_elevated liver function tests (Hepatotoxicity [5]) | HepSE_hepatic failure (Hepatotoxicity [6]) | HepSE_hepatic necrosis (Hepatotoxicity [7]) | HepSE_hepatitis (Hepatotoxicity [8]) | HepSE_hepatomegaly (Hepatotoxicity [9]) | HepSE_jaundice (Hepatotoxicity [10]) | HepSE_liver disease (Hepatotoxicity [11]) | HepSE_liver fatty (Hepatotoxicity [12]) | HepSE_liver function tests abnormal (Hepatotoxicity [13]) | HepSE_Combined Scores (Hepatotoxicity [14])

NC[C@@H]1O[C@H](O[C@H]2[C@@H](O)[C@H](O[C@@H]3[C@@H](O)[C@H](N)C[C@H](N)[C@H]3O[C@H]3O[C@H](CN)[C@@H](O)[C@H](O)[C@H]3N)O[C@@H]2CO)[C@H](N)[C@@H](O)[C@@H]1O [FRAMYCETIN]
0: HepSE_bilirubinemia (Hepatotoxicity [1]; Liver) | HepSE_cholecystitis (Hepatotoxicity [2]; Liver) | HepSE_cholelithiasis (Hepatotoxicity [3]; Liver) | HepSE_cirrhosis (Hepatotoxicity [4]; Liver) | HepSE_elevated liver function tests (Hepatotoxicity [5]; Liver) | HepSE_hepatic failure (Hepatotoxicity [6]; Liver) | HepSE_hepatic necrosis (Hepatotoxicity [7]; Liver) | HepSE_hepatitis (Hepatotoxicity [8]; Liver) | HepSE_hepatomegaly (Hepatotoxicity [9]; Liver) | HepSE_jaundice (Hepatotoxicity [10]; Liver) | HepSE_liver disease (Hepatotoxicity [11]; Liver) | HepSE_liver fatty (Hepatotoxicity [12]; Liver) | HepSE_liver function tests abnormal (Hepatotoxicity [13]; Liver) | HepSE_Combined Scores (Hepatotoxicity [14]; Liver)

C=CC(N)CCC(=O)O (configuration not stated) [VIGABATRIN]
0: HepSE_bilirubinemia (Hepatotoxicity [1]) | HepSE_cholecystitis (Hepatotoxicity [2]) | HepSE_cholelithiasis (Hepatotoxicity [3]) | HepSE_cirrhosis (Hepatotoxicity [4]) | HepSE_elevated liver function tests (Hepatotoxicity [5]) | HepSE_hepatic failure (Hepatotoxicity [6]) | HepSE_hepatic necrosis (Hepatotoxicity [7]) | HepSE_hepatitis (Hepatotoxicity [8]) | HepSE_hepatomegaly (Hepatotoxicity [9]) | HepSE_jaundice (Hepatotoxicity [10]) | HepSE_liver disease (Hepatotoxicity [11]) | HepSE_liver fatty (Hepatotoxicity [12]) | HepSE_liver function tests abnormal (Hepatotoxicity [13]) | HepSE_Combined Scores (Hepatotoxicity [14])

CC#CCC(C)[C@H](O)/C=C/[C@@H]1[C@H]2C/C(=C/CCCC(=O)O)C[C@H]2C[C@H]1O (some centres not stated) [ILOPROST]
0: HepSE_bilirubinemia (Hepatotoxicity [1]) | HepSE_cholecystitis (Hepatotoxicity [2]) | HepSE_cholelithiasis (Hepatotoxicity [3]) | HepSE_cirrhosis (Hepatotoxicity [4]) | HepSE_elevated liver function tests (Hepatotoxicity [5]) | HepSE_hepatic failure (Hepatotoxicity [6]) | HepSE_hepatic necrosis (Hepatotoxicity [7]) | HepSE_hepatitis (Hepatotoxicity [8]) | HepSE_hepatomegaly (Hepatotoxicity [9]) | HepSE_jaundice (Hepatotoxicity [10]) | HepSE_liver disease (Hepatotoxicity [11]) | HepSE_liver fatty (Hepatotoxicity [12]) | HepSE_liver function tests abnormal (Hepatotoxicity [13]) | HepSE_Combined Scores (Hepatotoxicity [14])

CC(C)(C)C(=O)OCOP(=O)(COCCn1cnc2c(N)ncnc21)OCOC(=O)C(C)(C)C [ADEFOVIR DIPIVOXIL]
1: HepSE_hepatic failure (Hepatotoxicity [6]) | HepSE_Combined Scores (Hepatotoxicity [14])
0: HepSE_bilirubinemia (Hepatotoxicity [1]) | HepSE_cholecystitis (Hepatotoxicity [2]) | HepSE_cholelithiasis (Hepatotoxicity [3]) | HepSE_cirrhosis (Hepatotoxicity [4]) | HepSE_elevated liver function tests (Hepatotoxicity [5]) | HepSE_hepatic necrosis (Hepatotoxicity [7]) | HepSE_hepatitis (Hepatotoxicity [8]) | HepSE_hepatomegaly (Hepatotoxicity [9]) | HepSE_jaundice (Hepatotoxicity [10]) | HepSE_liver disease (Hepatotoxicity [11]) | HepSE_liver fatty (Hepatotoxicity [12]) | HepSE_liver function tests abnormal (Hepatotoxicity [13])

C[C@H]1c2cccc(O)c2C(=O)C2=C(O)[C@]3(O)C(=O)C(C(N)=O)=C(O)[C@@H](N(C)C)[C@@H]3[C@@H](O)[C@@H]21.O [DOXYCYCLINE]
0: HepSE_bilirubinemia (Hepatotoxicity [1]) | HepSE_cholecystitis (Hepatotoxicity [2]) | HepSE_cholelithiasis (Hepatotoxicity [3]) | HepSE_cirrhosis (Hepatotoxicity [4]) | HepSE_elevated liver function tests (Hepatotoxicity [5]) | HepSE_hepatic failure (Hepatotoxicity [6]) | HepSE_hepatic necrosis (Hepatotoxicity [7]) | HepSE_hepatitis (Hepatotoxicity [8]) | HepSE_hepatomegaly (Hepatotoxicity [9]) | HepSE_jaundice (Hepatotoxicity [10]) | HepSE_liver disease (Hepatotoxicity [11]) | HepSE_liver fatty (Hepatotoxicity [12]) | HepSE_liver function tests abnormal (Hepatotoxicity [13]) | HepSE_Combined Scores (Hepatotoxicity [14])

C#CCN(C)[C@H](C)Cc1ccccc1 [SELEGILINE]
1: HepSE_bilirubinemia (Hepatotoxicity [1]) | HepSE_cholecystitis (Hepatotoxicity [2]) | HepSE_cholelithiasis (Hepatotoxicity [3]) | HepSE_hepatitis (Hepatotoxicity [8]) | HepSE_liver function tests abnormal (Hepatotoxicity [13])
0: HepSE_cirrhosis (Hepatotoxicity [4]) | HepSE_elevated liver function tests (Hepatotoxicity [5]) | HepSE_hepatic failure (Hepatotoxicity [6]) | HepSE_hepatic necrosis (Hepatotoxicity [7]) | HepSE_hepatomegaly (Hepatotoxicity [9]) | HepSE_jaundice (Hepatotoxicity [10]) | HepSE_liver disease (Hepatotoxicity [11]) | HepSE_liver fatty (Hepatotoxicity [12])
5: HepSE_Combined Scores (Hepatotoxicity [14])

OCCOCCN1CCN(C2=Nc3ccccc3Sc3ccccc32)CC1 [QUETIAPINE]
0: HepSE_bilirubinemia (Hepatotoxicity [1]; Liver) | HepSE_cholecystitis (Hepatotoxicity [2]; Liver) | HepSE_cholelithiasis (Hepatotoxicity [3]; Liver) | HepSE_cirrhosis (Hepatotoxicity [4]; Liver) | HepSE_elevated liver function tests (Hepatotoxicity [5]; Liver) | HepSE_hepatic failure (Hepatotoxicity [6]; Liver) | HepSE_hepatic necrosis (Hepatotoxicity [7]; Liver) | HepSE_hepatitis (Hepatotoxicity [8]; Liver) | HepSE_hepatomegaly (Hepatotoxicity [9]; Liver) | HepSE_jaundice (Hepatotoxicity [10]; Liver) | HepSE_liver disease (Hepatotoxicity [11]; Liver) | HepSE_liver fatty (Hepatotoxicity [12]; Liver) | HepSE_liver function tests abnormal (Hepatotoxicity [13]; Liver) | HepSE_Combined Scores (Hepatotoxicity [14]; Liver)

CN(C)CCc1c[nH]c2ccc(Cn3cncn3)cc12 [RIZATRIPTAN]
0: HepSE_bilirubinemia (Hepatotoxicity [1]) | HepSE_cholecystitis (Hepatotoxicity [2]) | HepSE_cholelithiasis (Hepatotoxicity [3]) | HepSE_cirrhosis (Hepatotoxicity [4]) | HepSE_elevated liver function tests (Hepatotoxicity [5]) | HepSE_hepatic failure (Hepatotoxicity [6]) | HepSE_hepatic necrosis (Hepatotoxicity [7]) | HepSE_hepatitis (Hepatotoxicity [8]) | HepSE_hepatomegaly (Hepatotoxicity [9]) | HepSE_jaundice (Hepatotoxicity [10]) | HepSE_liver disease (Hepatotoxicity [11]) | HepSE_liver fatty (Hepatotoxicity [12]) | HepSE_liver function tests abnormal (Hepatotoxicity [13]) | HepSE_Combined Scores (Hepatotoxicity [14])

CCCCC(C)(O)C/C=C/[C@H]1[C@H](O)CC(=O)[C@@H]1CCCCCCC(=O)OC (some centres not stated) [MISOPROSTOL]
0: HepSE_bilirubinemia (Hepatotoxicity [1]) | HepSE_cholecystitis (Hepatotoxicity [2]) | HepSE_cholelithiasis (Hepatotoxicity [3]) | HepSE_cirrhosis (Hepatotoxicity [4]) | HepSE_elevated liver function tests (Hepatotoxicity [5]) | HepSE_hepatic failure (Hepatotoxicity [6]) | HepSE_hepatic necrosis (Hepatotoxicity [7]) | HepSE_hepatitis (Hepatotoxicity [8]) | HepSE_hepatomegaly (Hepatotoxicity [9]) | HepSE_jaundice (Hepatotoxicity [10]) | HepSE_liver disease (Hepatotoxicity [11]) | HepSE_liver fatty (Hepatotoxicity [12]) | HepSE_liver function tests abnormal (Hepatotoxicity [13]) | HepSE_Combined Scores (Hepatotoxicity [14])
